Laboratory results taken from publication PMC6062979 (BMC Complementary and Alternative Medicine, 2018).
≈ marks a conversion by molar mass, not a printed value. Entries after “also recorded” stand apart in the source; their conditions may differ.

Key:
T. cruzi Epi [1] = experiment: Anti-parasitic activity on T. cruzi epimastigotes (Trypan Blue differential count); conditions: for IC50: Trypanosoma cruzi, read-out: Epi IC50 ± SD, epimastigotes, 72 h; for IC50 / Epi IC50 ± SD: 72 h; for Epi SI (CC50/IC50): Vero CC50 / epimastigote IC50; for Epi IC50 ± SD: epimastigotes
Description: (§1) Vero lineage derived from African Green Monkey Kidney (Vero, ATCC CCL-81) was used for selectivity index determination and for Tryp and Amas production. These cells were grown on DMEM (Life Technology, CA, USA) media, pH: 7.4; supplemented with 10% of inactivated Fetal Bovine Serum (FBSi), 1000 U/mL of penicillin, and 100 μg/mL of streptomycin; and incubated at 37 °C with 90% humidity and a 5% CO2 atmosphere. Epi of T. cruzi I (TcI) SYLVIO-X10 strain, were donated by Dr. Marcos López-Casillas, from Fundación Cardiovascular de Colombia and grown in LIT medium (Merck) supplemented with 10% FBSi, and incubated at 28 °C. The Trypomastigotes Derived from Cells (TDC) were obtained by infection of a confluent monolayer of Vero cells with 12 day-old stationary growth phase Epi and incubated under the same conditions described above for Vero cells.
(§2) T. cruzi Epi (5 × 10^5 Epi/mL) and TDC (5 × 10^5 cells/mL) in the exponential growth phase were plated in a 96-well standard microplate in LIT medium (at 28 °C) and in D-MEM medium (at 37 °C in a 5% CO2 atmosphere), respectively. Both cultures were supplemented with 10% FBSi. For the trypanocidal assays, the EOs or their terpenes were added at varying concentrations (3.7 to 100 μg/mL) and incubated at the same culture conditions for 72 (Epi) or 24 h (Tryp). The growth inhibition was estimated by light microscopy through a differential count using the Trypan Blue (Gibco) dye exclusion technique. […] For Amas assays, a monolayer of Vero cells (3 × 10^5 cel/mL) was infected with TDC in a 1:3 cell:parasite ratio and incubated for 24 h until Amas development occurred. Then, these intracellular forms were exposed for 120 h to EOs or terpenes in a treatment applied in two doses (at 0 and 48 h), under the same conditions described above. Growth inhibition analysis was assessed in Giemsa-stained films using light microscopy to determine the infected and uninfected cell percentage in a total of 300 cells. Cells without treatment and those treated with BNZ were used as negative and positive controls, respectively.

T. cruzi Tryp (TDC) = experiment: Anti-parasitic activity on T. cruzi trypomastigotes derived from cells (Trypan Blue differential count); conditions: for IC50: Trypanosoma cruzi, read-out: Tryp IC50 SD, trypomastigotes, 24 h; for IC50 / Tryp IC50 SD: 24 h; for Tryp SI (CC50/IC50): Vero CC50 / trypomastigote IC50; for Tryp IC50 SD: trypomastigotes
Description: as §1, §2

T. cruzi Amas = experiment: Anti-parasitic activity on intracellular T. cruzi amastigotes in Vero cells (Giemsa count); type: cell-based, Trypanosoma cruzi; conditions: for IC50: Trypanosoma cruzi, Vero, read-out: Amas IC50 ± SD; for IC50 / Amas IC50 ± SD: intracellular amastigotes in Vero, 120 h, two doses (0 and 48 h); for Amas SI (CC50/IC50): Vero CC50 / amastigote IC50
Description: as §1, §2

[2] = Cytotoxic activity on Vero cells (WST-1); conditions: African green monkey, pH 7.4
Description: as §1
(§3) Vero cells (3 × 10^5 cel/mL) were incubated at 37 °C in a 5% CO2 atmosphere and at 95% humidity for 24 h to ensure the formation of a confluent monolayer. After this time, the cells were treated with the EOs or their terpenes in four different concentrations (11.1, 33.3, 100, and 300 μg/mL). Thereafter, the lineages were incubated for 70 h at 37 °C in a 5% CO2 atmosphere and re-incubated 2 more hours with WST-1 (Roche, Mannheim, Germany), after which Optical Density (OD) measurements were analyzed by spectrophotometry. The cytotoxicity percentage was calculated using [(OD450nm Control – OD450nm treatment) / […])] × 100. The results were expressed as Cytotoxic Concentration 50 (CC50).

T. cruzi Epi [3] = experiment: Morphological analysis by optical and fluorescent microscopy (DIC, DAPI, MitoTracker); type: cell-based, Trypanosoma cruzi; conditions: 2xIC50, 48 h
Description: (§4) The death phenotype was analyzed by optical and fluorescent microscopy using phase contrast (fluorescence microscopy, Nikon Eclipse Ni). […] Determination of an oligonucleosomal-DNA ladder in treated parasites was also evaluated through DNA gel electrophoresis. Evaluation of the mitochondrial potential membrane in living parasites was performed with MitoTracker Red CMXRos (579 nm/599 nm […] wavelength). As a positive and negative apoptosis control, a 15 day-old Epi culture and an untreated fresh parasite culture were used, respectively.

Vero cells = experiment: Cytotoxic activity on Vero cells (WST-1); conditions: Vero cells, 72 h, WST-1
Description: as §1, §3

T. cruzi Epi [4] = experiment: DNA fragmentation by TUNEL assay on epimastigotes; type: cell-based, Trypanosoma cruzi; conditions: for DNA fragmentation (positive TUNEL) percentage: Epi, 48 h, 2xIC50; for TUNEL assay result: treated parasites
Description: as §4

T. cruzi Epi [5] = experiment: Flow cytometry Annexin V / SYTOX Green cell death analysis on epimastigotes; type: cell-based, Trypanosoma cruzi; conditions: 48 h at 2xIC50, flow cytometry
Description: For cell death characterization, an Annexin V/Dead with SYTOX® Green (Molecular Probes, Invitrogen) kit was used following the procedure specified in the manufacturer’s instructions. The phosphatidylserine externalization was determined by employing a recombinant Annexin V conjugated to the Orange Fluorescent phycobiliprotein R-PE, and to the necrotic cells using SYTOX™ Green nucleic acid stain. Briefly, 1 × 10^6 Epi per mL were treated with 2xIC50 for 48 h, washed, and suspended in 1X Annexin-Binding Buffer.

[6] = Vero cells (ATCC CCL-81), kidney

Compound	IC50 (T. cruzi Epi [1]) [µg/mL]	Epi SI (CC50/IC50) (T. cruzi Epi [1])	IC50 (T. cruzi Tryp (TDC)) [µg/mL]	Tryp SI (CC50/IC50) (T. cruzi Tryp (TDC))	IC50 (T. cruzi Amas) [µg/mL]	Amas SI (CC50/IC50) (T. cruzi Amas)	Amas IC50 ± SD (T. cruzi Amas) [µg/mL]	CC50 at 72 h [2, 6] [µg/mL]	morphological changes of treated parasites (T. cruzi Epi [3])	Tryp IC50 SD (T. cruzi Tryp (TDC)) [µg/mL]	Vero CC50 ± SD (Vero cells) [µg/mL]	DNA fragmentation (positive TUNEL) percentage (T. cruzi Epi [4]) [%]	TUNEL assay result (T. cruzi Epi [4])	percentage of cell death (T. cruzi Epi [5]) [%]	Epi IC50 ± SD (T. cruzi Epi [1]) [µg/mL]	other results
O=C(Cn1ccnc1[N+](=O)[O-])NCc1ccccc1 [BNZ, Benznidazole, reference compound]	17 ± 0.9 (≈ 65.3 µM)	8.2	1.2 ± 0.1 (≈ 4.61 µM)	116.3	6 ± 0.9 (≈ 23.1 µM)	22.4	6.2 ± 0.9	139 ± 2.3 (≈ 534 µM)	cellular edema and loss of cellular membrane integrity, but with conserved mitochondrial energetic potential							
C=C(C)[C@H]1CC=C(C)CC1 [Limonene, D (+) limonene]							29 ± 0.7		typical characteristics of apoptosis	9 ± 0.8	297 ± 2.4	94	positive	89.2		Amas IC50 ± SD (T. cruzi Amas; listed as limonene): 28.7 µg/mL
(−) caryophyllene oxide [CarOx]		4.3		5.9		2.7	47 ± 1.0		flagellum to be lost; also recorded: typical characteristics of apoptosis	22 ± 0.3	128 ± 4.2	99	positive	95.7	30 ± 1.7	cell death percentage (CDP) on Epi (T. cruzi Epi [1]; at 50 μg/mL): 78 ± 2.3%; Epi IC50 ± SD (T. cruzi Epi [1]; listed as caryophyllene oxide): 29.8 µg/mL; cell death percentage (CDP) on Tryp (T. cruzi Tryp (TDC); at 50 μg/mL): 98 ± 0.5%; Tryp IC50 SD (T. cruzi Tryp (TDC); listed as caryophyllene oxide): 21.6 µg/mL; Amas IC50 ± SD (T. cruzi Amas; listed as caryophyllene oxide): 47.4 µg/mL
CC(C)=CCCC(C)=CC=O (mixture of isomers) [Citral, citral]	37.2	2.4	20.8	4.3	49 ± 2.3	1.8		90 ± 3.9	typical characteristics of apoptosis	21 ± 1				78.4	37 ± 0.7	
C=C(C)[C@H]1CC=C(C)C(=O)C1 [Carvone, S (+) carvone]	177 ± 7.9 (≈ 1180 µM)	1.4	124 ± 8 (≈ 825 µM)	1.9	> 100											CC50 at 72 h [2]: 240 ± 4.1 µg/mL (≈ 1600 µM)
